Reference: patent publication US20250313635A1, “ANTI-INTEGRIN ANTIBODIES AND USES THEREOF” (Merck Sharp & Dohme LLC, priority 2022, published 2025)
Read-outs that look alike come from different tables or passages of the source.

Key:
hαvβ3 = biological target: T1, hαvβ3 (Homo sapiens, UniProt P05106+P06756); experiment: Human AlphaLISA integrin-ligand blocking assay (vitronectin); assay type: biochemical
T1 construct: The full extracellular domains for all α and β integrin subunits; (GGGS)3 linker (C); acidic coiled-coil with cysteine (C); GG-Avitag (C); hexa-histidine tag (C); basic coiled-coil with cysteine (C); made in house; host or cells: Expi293 cells
Method: (§1) Integrin AlphaLISA assay. In the AlphaLISA integrin assays, we used a HEPES based buffer (25 mM HEPES pH 7.4, 137 mM NaCl, 1 mM MgCl2, 1 mM MnCl2, 2 mM CaCl2, 2.7 mM KCl, and 0.05% Tween 20). Optimal assay conditions were determined with a titration of the reagents for signal noise ratio (S/N), linear range, etc. For the respective integrins, we used the final concentrations described in Table 9.
(§2) Briefly, the testing antibody (8 μL) was added as a 4×(of Final testing concentration) solution in the HEPES buffer described previously into a 384w AlphaPlate™ (Perkin Elmer #6005350). Then the integrin and ligand were added sequentially as 8×(4 μL each). Plates were sealed and incubated at room temperature for two hours. Then 4×acceptor bead solution ([…]) was added, and the plates were resealed and incubated at room temperature (RT) for one hour. Finally, 4×([…]) donor beads solution was added in a darkened room and incubated for 45 minutes at room temperature. Plates were read on the Envision (Perkin Elmer) in AlphaScreen™ mode within three hours of donor bead addition.

hαvβ5 = biological target: T2, hαvβ5 (Homo sapiens, UniProt P06756+P18084); experiment: as above; assay type: biochemical
T2 construct: The full extracellular domains for all α and β integrin subunits; (GGGS)3 linker (C); acidic coiled-coil with cysteine (C); GG-Avitag (C); hexa-histidine tag (C); basic coiled-coil with cysteine (C); made in house; host or cells: Expi293 cells
Method: as §1, §2

hαvβ6 = biological target: T3, hαvβ6 (Homo sapiens, UniProt P06756+P18564); experiment: Human AlphaLISA integrin-ligand blocking assay (LAP); assay type: biochemical
T3 construct: The full extracellular domains for all α and β integrin subunits; (GGGS)3 linker (C); acidic coiled-coil with cysteine (C); GG-Avitag (C); hexa-histidine tag (C); basic coiled-coil with cysteine (C); made in house; host or cells: Expi293 cells
Method: as §1, §2

hαvβ8 = biological target: T4, hαvβ8 (Homo sapiens, UniProt P06756+P26012); experiment: as above; assay type: biochemical
T4 construct: The full extracellular domains for all α and β integrin subunits; (GGGS)3 linker (C); acidic coiled-coil with cysteine (C); GG-Avitag (C); hexa-histidine tag (C); basic coiled-coil with cysteine (C); made in house; host or cells: Expi293 cells
Method: as §1, §2

mαvβ6 = biological target: T5, mαvβ6 (Mus musculus, UniProt P43406+Q9Z0T9); experiment: Mouse AlphaLISA integrin-ligand blocking assay (LAP); assay type: biochemical; settings: Table 12; read-out: IC50 Mouse integrin AlphaLISA assays mαvβ6
T5 construct: The full extracellular domains for all α and β integrin subunits; (GGGS)3 linker (C); acidic coiled-coil with cysteine (C); GG-Avitag (C); hexa-histidine tag (C); basic coiled-coil with cysteine (C); made in house; host or cells: Expi293 cells
Method: as §1, §2

mαvβ8 = biological target: T6, mαvβ8 (Mus musculus, UniProt P43406+Q0VBD0); experiment: as above; assay type: biochemical; settings: Table 12; read-out: IC50 Mouse integrin AlphaLISA assays mαvβ8
T6 construct: The full extracellular domains for all α and β integrin subunits; (GGGS)3 linker (C); acidic coiled-coil with cysteine (C); GG-Avitag (C); hexa-histidine tag (C); basic coiled-coil with cysteine (C); made in house; host or cells: Expi293 cells
Method: as §1, §2

mα5β1 = biological target: T7, mα5β1 (Mus musculus, UniProt P09055+P11688); experiment: Mouse AlphaLISA integrin-ligand blocking assay (fibronectin); assay type: biochemical; settings: Table 12; read-out: IC50 Mouse integrin AlphaLISA assays mα5β1
T7 construct: The full extracellular domains for all α and β integrin subunits; (GGGS)3 linker (C); acidic coiled-coil with cysteine (C); GG-Avitag (C); hexa-histidine tag (C); basic coiled-coil with cysteine (C); made in house; host or cells: Expi293 cells
Method: as §1, §2

mαvβ1 = biological target: T8, mαvβ1 (Mus musculus, UniProt P09055+P43406); experiment: as above; assay type: biochemical; settings: Table 12; read-out: IC50 Mouse integrin AlphaLISA assays mαvβ1
T8 construct: The full extracellular domains for all α and β integrin subunits; (GGGS)3 linker (C); acidic coiled-coil with cysteine (C); GG-Avitag (C); hexa-histidine tag (C); basic coiled-coil with cysteine (C); made in house; host or cells: Expi293 cells
Method: as §1, §2

CHOK1 parental cells = experiment: Cell adhesion assay, CHOK1 parental cells on fibronectin; assay type: cell-based, hamster; settings: FIG. 11
human αvβ1 = biological target: T9, human αvβ1 (Homo sapiens, UniProt P05556+P06756); experiment: Latent TGFβ activation assay, TMLC / CHOK1-integrin co-culture (PAI-1 luciferase); assay type: cell-based; settings: FIG. 5B
T9 construct: expressed in transfected cells
Method: (§3) Latent TGFβ activation assay. Transfected mink lung epithelial cell (TMLC) cell line containing the TGFβ responsive PAI-1 promoter driving luciferase expression (Mazzieri et al, Methods Mol. Biol. 142, 13-27 (2000)) and the CHO-K1 human and mouse αvβ×integrin cell lines were grown under optimized growth conditions to 90% confluency. TMLC cells were trypsinized and plated at 25,000 cells/well in 50 μL in Costar clear bottom white walled plates. In a separate plate, 25 μL of serially diluted antibodies at 4×concentration were added to wells containing 25 μL of either 25,000 cells of human or mouse αvβ×cells. After a brief mixing, the 50 μL mixture was transferred to the TMLC cell plates for a total volume of 100 μL and incubated at 37° C. for 16 hours. 100 μL of ONE-Glo kit (#PRE6120) was added to each well and read after three to five minutes on the Envision plate reader.

human αvβ6 = biological target: T10, human αvβ6 (Homo sapiens, UniProt P06756+P18564); experiment: as above; assay type: cell-based; settings: FIG. 5B
T10 construct: expressed in transfected cells
Method: as §3

human αvβ8 = biological target: T11, human αvβ8 (Homo sapiens, UniProt P06756+P26012); experiment: as above; assay type: cell-based; settings: FIG. 5B
T11 construct: expressed in transfected cells
Method: as §3

mouse αvβ1 = biological target: T12, mouse αvβ1 (Mus musculus, UniProt P09055+P43406); experiment: as above; assay type: cell-based; settings: FIG. 5B
T12 construct: expressed in transfected cells
Method: as §3

mouse αvβ6 = biological target: T13, mouse αvβ6 (Mus musculus, UniProt P43406+Q9Z0T9); experiment: as above; assay type: cell-based; settings: FIG. 5B
T13 construct: expressed in transfected cells
Method: as §3

[1] = system: IPF patient lung fibroblasts; experiment: αSMA imaging, TGFβ-induced αSMA expression; assay type: cell-based, human; set-up: inhibiting αSMA induction: dose or concentration left out as unconfirmed
Method: αSMA imaging. Primary cells (passage 3-5) were grown on Cell carrier Ultra, collagen Type 1 coated 96-well plates (Perkin Elmer, #6055700) at a density of 25,000 cells/well. Once the cells adhere, they were starved in serum free media for 24 hours followed by addition of treatments, i.e., 5 ng/mL TGFβ (Biolegend #580702)±inhibitors. Cells were pre-treated with inhibitors for 30 minutes prior to the addition of TGFβ stimulation. 48 hours post treatment, the cells were fixed in 4% methanol free paraformaldehyde (ThermoFisher Scientific #28908) for 20 minutes at room temperature and incubated with anti-alpha smooth muscle Actin antibody (Abcam #ab7817) at 1:4000 overnight at 4° C. Following primary antibody incubation, cells were incubated with Goat anti-mouse secondary antibody (ThermoFisher Scientific #A32723) at 1:500 and Hoechst (ThermoFisher Scientific #62249) at 1:1000 for one hour at RT. The fixed and stained cells were images for immunofluorescence on Perkin Elmer's Opera Phenix high content Imager.

[2] = humans; cited from earlier work
[3] = system: experimental diabetic nephropathy model; settings: cited from earlier work

T2 sequence (P06756 31-992 limits assumed): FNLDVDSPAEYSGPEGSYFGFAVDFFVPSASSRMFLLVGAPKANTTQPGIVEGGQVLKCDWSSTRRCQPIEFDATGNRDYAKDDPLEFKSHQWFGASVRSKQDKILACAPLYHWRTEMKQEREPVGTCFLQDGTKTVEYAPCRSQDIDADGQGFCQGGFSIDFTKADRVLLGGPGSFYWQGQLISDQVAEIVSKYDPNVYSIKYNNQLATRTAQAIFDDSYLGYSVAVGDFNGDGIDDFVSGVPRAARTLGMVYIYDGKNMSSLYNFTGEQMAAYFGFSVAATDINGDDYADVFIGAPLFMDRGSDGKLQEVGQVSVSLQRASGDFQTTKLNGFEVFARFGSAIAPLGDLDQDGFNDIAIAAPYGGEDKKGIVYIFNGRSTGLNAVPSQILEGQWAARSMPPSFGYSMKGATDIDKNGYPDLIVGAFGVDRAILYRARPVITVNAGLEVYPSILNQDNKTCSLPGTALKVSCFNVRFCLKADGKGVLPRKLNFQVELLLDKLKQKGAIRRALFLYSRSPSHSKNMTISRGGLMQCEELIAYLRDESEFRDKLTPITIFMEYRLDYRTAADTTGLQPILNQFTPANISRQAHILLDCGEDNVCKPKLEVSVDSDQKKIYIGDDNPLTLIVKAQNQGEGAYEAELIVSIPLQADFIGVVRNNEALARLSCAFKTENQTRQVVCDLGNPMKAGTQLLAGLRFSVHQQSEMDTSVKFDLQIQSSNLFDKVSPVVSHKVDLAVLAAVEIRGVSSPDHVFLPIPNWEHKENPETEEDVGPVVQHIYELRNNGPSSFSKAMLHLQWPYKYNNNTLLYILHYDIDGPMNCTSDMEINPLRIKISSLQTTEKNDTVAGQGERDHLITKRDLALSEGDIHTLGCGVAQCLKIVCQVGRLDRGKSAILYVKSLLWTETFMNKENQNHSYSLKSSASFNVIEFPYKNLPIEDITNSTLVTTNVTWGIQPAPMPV
T2 sequence (P18084 24-719 limits assumed): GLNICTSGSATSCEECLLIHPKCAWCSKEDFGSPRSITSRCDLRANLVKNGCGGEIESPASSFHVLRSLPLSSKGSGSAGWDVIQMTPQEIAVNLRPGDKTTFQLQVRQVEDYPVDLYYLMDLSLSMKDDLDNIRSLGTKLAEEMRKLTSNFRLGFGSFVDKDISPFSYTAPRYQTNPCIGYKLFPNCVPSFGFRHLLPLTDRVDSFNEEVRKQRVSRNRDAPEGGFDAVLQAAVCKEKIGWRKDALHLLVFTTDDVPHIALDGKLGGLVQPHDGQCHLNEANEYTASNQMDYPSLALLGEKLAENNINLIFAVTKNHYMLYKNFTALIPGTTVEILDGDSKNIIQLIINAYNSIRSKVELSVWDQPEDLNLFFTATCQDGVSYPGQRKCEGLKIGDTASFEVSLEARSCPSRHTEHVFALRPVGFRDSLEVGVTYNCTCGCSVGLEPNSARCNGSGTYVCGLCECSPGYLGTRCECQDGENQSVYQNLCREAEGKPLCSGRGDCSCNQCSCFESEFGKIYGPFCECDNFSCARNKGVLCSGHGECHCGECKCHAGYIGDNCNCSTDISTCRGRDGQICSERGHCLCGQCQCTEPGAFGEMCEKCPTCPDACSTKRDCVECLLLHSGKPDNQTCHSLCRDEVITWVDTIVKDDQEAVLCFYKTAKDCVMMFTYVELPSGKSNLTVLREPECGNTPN
T3 sequence (P06756 31-992 limits assumed): as the sequence (P06756 31-992 limits assumed) above
T3 sequence (P18564 22-709 limits assumed): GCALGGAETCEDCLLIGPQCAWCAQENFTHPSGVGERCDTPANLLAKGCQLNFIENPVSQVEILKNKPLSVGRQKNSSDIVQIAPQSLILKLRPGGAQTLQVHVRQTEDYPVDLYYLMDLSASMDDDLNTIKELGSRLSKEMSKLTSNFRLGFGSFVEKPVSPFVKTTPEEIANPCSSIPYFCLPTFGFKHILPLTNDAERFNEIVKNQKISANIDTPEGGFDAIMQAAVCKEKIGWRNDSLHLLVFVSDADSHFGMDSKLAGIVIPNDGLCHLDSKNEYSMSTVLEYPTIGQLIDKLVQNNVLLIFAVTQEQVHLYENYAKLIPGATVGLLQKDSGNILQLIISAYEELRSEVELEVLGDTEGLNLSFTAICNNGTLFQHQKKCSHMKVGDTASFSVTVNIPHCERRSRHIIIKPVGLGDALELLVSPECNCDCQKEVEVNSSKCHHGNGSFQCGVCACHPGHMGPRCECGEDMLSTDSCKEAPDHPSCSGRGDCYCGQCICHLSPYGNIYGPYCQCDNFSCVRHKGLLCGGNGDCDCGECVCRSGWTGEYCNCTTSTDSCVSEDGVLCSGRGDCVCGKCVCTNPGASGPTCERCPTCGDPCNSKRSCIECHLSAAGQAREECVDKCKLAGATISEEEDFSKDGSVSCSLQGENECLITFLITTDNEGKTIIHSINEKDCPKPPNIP
T4 sequence (P06756 31-992 limits assumed): as the sequence (P06756 31-992 limits assumed) above
T4 sequence (P26012 43-684 limits assumed): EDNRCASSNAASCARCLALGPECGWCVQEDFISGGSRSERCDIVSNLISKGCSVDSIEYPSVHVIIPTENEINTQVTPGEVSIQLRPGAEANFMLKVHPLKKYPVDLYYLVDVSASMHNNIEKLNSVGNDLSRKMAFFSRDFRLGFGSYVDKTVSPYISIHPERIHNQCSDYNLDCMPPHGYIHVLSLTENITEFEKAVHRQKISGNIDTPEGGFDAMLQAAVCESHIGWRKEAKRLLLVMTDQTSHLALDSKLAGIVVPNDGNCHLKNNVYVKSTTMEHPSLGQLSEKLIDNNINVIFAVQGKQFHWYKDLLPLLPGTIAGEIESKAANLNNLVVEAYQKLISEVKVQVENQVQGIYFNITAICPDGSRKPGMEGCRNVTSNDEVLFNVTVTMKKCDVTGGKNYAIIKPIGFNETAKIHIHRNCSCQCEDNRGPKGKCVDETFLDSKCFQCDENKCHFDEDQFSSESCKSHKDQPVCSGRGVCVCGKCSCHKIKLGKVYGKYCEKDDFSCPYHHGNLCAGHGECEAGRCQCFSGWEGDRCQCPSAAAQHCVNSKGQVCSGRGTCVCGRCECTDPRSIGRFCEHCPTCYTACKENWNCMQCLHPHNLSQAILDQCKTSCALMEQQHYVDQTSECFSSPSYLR
T1 sequence (P06756 31-992 limits assumed): as the sequence (P06756 31-992 limits assumed) above
T1 sequence (P05106 27-718 limits assumed): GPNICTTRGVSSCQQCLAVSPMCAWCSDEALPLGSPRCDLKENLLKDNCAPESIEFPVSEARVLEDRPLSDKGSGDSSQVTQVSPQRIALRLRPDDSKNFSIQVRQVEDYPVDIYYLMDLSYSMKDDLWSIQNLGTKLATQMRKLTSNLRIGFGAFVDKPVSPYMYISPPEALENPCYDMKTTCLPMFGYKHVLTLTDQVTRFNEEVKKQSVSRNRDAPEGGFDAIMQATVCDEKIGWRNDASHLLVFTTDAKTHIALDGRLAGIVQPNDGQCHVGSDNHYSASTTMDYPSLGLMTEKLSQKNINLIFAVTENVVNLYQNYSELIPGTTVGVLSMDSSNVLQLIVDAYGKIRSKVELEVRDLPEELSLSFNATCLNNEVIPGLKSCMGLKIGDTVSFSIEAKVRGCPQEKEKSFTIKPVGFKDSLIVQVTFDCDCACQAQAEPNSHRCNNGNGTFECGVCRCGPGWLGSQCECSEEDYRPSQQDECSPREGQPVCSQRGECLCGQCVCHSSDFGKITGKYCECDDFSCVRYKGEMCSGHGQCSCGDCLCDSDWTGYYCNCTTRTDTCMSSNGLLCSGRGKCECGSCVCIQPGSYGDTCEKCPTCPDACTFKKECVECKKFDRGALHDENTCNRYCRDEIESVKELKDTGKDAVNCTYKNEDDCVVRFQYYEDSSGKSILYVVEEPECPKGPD

Question: For `COc1ccc([C@H](CC(=O)O)N2CCN(CCCc3ccc4c(n3)NCCC4)C2=O)cn1` [MK-0429, (3S)-3-(6-methoxypyridin-3-yl)-3-[2-oxo-3-[3-(5,6,7,8-tetrahydro-1,8-naphthyridin-2-yl)propyl]imidazolidin-1-yl]propanoic acid], which IC50 (hαvβ3; FIG. 3D, curve-fitted, read-out: IC50 against human αvβ3, AlphaLISA) is on record?
Answer: 0.15 nM

Question: What about the IC50 (hαvβ3; Table 11, read-out: IC50 Human integrin AlphaLISA assays hαvβ3) of the same compound?
Answer: 1.6 nM

Question: What about the IC50 (hαvβ5; FIG. 3D, curve-fitted, read-out: IC50 against human αvβ5, AlphaLISA) of the same compound?
Answer: 9.9 nM

Question: And the IC50 (hαvβ5; Table 11, read-out: IC50 Human integrin AlphaLISA assays hαvβ5)?
Answer: 2.9 nM

Question: What about the IC50 (hαvβ6; FIG. 3D, curve-fitted, read-out: IC50 against human αvβ6, AlphaLISA) of the same compound?
Answer: 3.8 nM

Question: What about the IC50 (hαvβ6; Table 11, read-out: IC50 Human integrin AlphaLISA assays hαvβ6) of the same compound?
Answer: 0.5 nM

Question: And the IC50 (hαvβ8; FIG. 3D, curve-fitted, read-out: IC50 against human αvβ1 (as printed, fifth integrin listed), AlphaLISA)?
Answer: 58.3 nM

Question: What about the IC50 (hαvβ8; Table 11, read-out: IC50 Human integrin AlphaLISA assays hαvβ8) of the same compound?
Answer: 3.1 nM

Question: And the IC50 (mαvβ6)?
Answer: 0.4 nM

Question: What about the IC50 (mαvβ8) of the same compound?
Answer: 5.3 nM

Question: What about the IC50 (mα5β1) of the same compound?
Answer: 50.3 nM

Question: What about the IC50 (mαvβ1) of the same compound?
Answer: 1.3 nM

Question: And the “inhibition of adhesion of CHOK1 parental cells on fibronectin” value (CHOK1 parental cells)?
Answer: little inhibitory activity

Question: What about the “inhibition of latent TGFβ activation, human αvβ1 co-culture” value (human αvβ1) of the same compound?
Answer: strong inhibitory effect

Question: What about the “inhibition of latent TGFβ activation, human αvβ6 co-culture” value (human αvβ6) of the same compound?
Answer: strong inhibitory effect

Question: And the “inhibition of latent TGFβ activation, human αvβ8 co-culture” value (human αvβ8)?
Answer: strong inhibitory effect

Question: What about the “inhibition of latent TGFβ activation, mouse αvβ1 co-culture” value (mouse αvβ1) of the same compound?
Answer: strong inhibitory effect

Question: And the “inhibition of latent TGFβ activation, mouse αvβ6 co-culture” value (mouse αvβ6)?
Answer: strong inhibitory effect

Question: What about the “inhibiting αSMA induction” value [1] of the same compound?
Answer: minimal activity

Question: And the oral bioavailability [2]?
Answer: good oral bioavailability

Question: And the proteinuria [3]?
Answer: reduces

Question: And the renal fibrosis [3]?
Answer: reduces
